# Data taken from PMC8175309, “Translational CNS Steady-State Drug Disposition Model in Rats, Monkeys, and Humans for Quantitative Prediction of Brain-to-Plasma and Cerebrospinal Fluid-to-Plasma Unbound Concentration Ratios” (The AAPS Journal, 2021).
# Read-outs that look alike come from different tables or passages of the source.
# How the values were obtained:
# in vivo = conditions: for Kp uu: rat
# Procedure: The CSF samples collected from cisterna magna in rats were stored at –80°C until analysis by liquid chromatography-tandem mass spectrometry (LC-MS/MS). Before performing the LC-MS/MS analysis, these samples were thawed on ice and mixed with three volumes of acetonitrile. The acetonitrile mixtures were vortexed and centrifuged, and the supernatant was collected. After dilution with mobile phase A (a mixture of 10 mM ammonium formate and formic acid at 100:0.2 (v/v)), the supernatant was injected into the LC-MS/MS system.
# (§1) To perform correlation analyses between the observed Kp,uu,brain and Kp,uu,CSF, and the model-based prediction of Kp,uu,brain and Kp,uu,CSF, data from literature information were integrated into the internally obtained data for these assessments (Supplemental Table 2) ([17],[22]–[24],[27]–[33]). When only the total concentrations in plasma, CSF, and brain were available, the total concentration ratio in plasma to CSF or brain (Kp,CSF or Kp,brain, respectively) was estimated, followed by calculation of Kp,uu,CSF or Kp,uu,brain based on Eqs.
# [1] = cited from earlier work
# BCRP = target: T1, BCRP (Homo sapiens, UniProt Q9UNQ0); assay: Transcellular transport across MDCK-BCRP cell monolayers (efflux ratio); conditions: dog, pH 7.4
# T1 sequence (Q9UNQ0 1-655): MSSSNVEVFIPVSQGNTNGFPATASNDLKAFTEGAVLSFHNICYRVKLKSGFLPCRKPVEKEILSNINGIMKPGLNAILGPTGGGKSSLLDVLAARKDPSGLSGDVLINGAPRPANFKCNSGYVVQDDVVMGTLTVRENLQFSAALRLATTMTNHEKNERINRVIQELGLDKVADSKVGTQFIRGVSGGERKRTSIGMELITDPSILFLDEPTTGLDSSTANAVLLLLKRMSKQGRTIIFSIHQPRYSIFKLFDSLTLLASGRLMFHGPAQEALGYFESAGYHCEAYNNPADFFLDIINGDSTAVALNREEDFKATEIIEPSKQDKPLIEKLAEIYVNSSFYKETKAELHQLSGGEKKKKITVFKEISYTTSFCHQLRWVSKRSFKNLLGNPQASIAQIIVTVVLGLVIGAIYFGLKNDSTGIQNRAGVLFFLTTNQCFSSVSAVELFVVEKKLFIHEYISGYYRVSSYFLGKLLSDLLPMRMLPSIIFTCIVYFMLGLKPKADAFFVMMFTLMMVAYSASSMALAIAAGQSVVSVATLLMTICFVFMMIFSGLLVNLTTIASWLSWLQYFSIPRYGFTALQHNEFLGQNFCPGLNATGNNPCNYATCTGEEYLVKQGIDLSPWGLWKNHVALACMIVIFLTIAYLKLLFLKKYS
# Procedure: (§2) To the compounds available internally, in vitro efflux ratios for MDR1 and BCRP were determined by the following procedure (Supplemental Table 2). Test compound stock solutions in dimethyl sulfoxide (DMSO) were diluted in transport buffer (Hanks’ balanced salt solution (HBSS) with 10 mM HEPES, pH 7.4) to a concentration of 1 μM (DMSO < 1%) and applied to the apical or basolateral side of a cell monolayer derived from Madin-Darby canine kidney (MDCK)-MDR1 and MDCK-BCRP cells. Permeation of the test compounds from apical to basolateral (A to B) direction or B to A direction was measured in duplicate. The plate was incubated for 1 h in a CO2 incubator at 37±1°C with 5% CO2 at saturated humidity without shaking. In addition, the efflux ratio of each compound was also determined. Test and reference compounds were quantified by LC-MS/MS analysis based on the peak area ratio of analyte/internal standard.
# (§3) The apparent permeability coefficient Papp (cm/s) was calculated by using Eq. 1: 1 Papp=dCr/dt×Vr/A×C0 where dCr/dt is the cumulative concentration of the compound in the receiver chamber as a function of time (μM/s); Vr is the volume of the solution in the receiver chamber (0.075 mL on the apical side, 0.25 mL on the basolateral side); A is the surface area for transport, i.e., 0.0804 cm^2 for the area of the monolayer; and C0 is the initial concentration (μM) in the donor chamber.
# (§4) The efflux ratio was calculated using Eq. 2: 2 Efflux ratio=Papp,BtoA/Papp,AtoB
# MDR1 = MDR1 (Homo sapiens, UniProt P08183); assay: in vitro; conditions: dog, MDCK-MDR1, pH 7.4
# Chain of MDR1 (P08183 whole entry): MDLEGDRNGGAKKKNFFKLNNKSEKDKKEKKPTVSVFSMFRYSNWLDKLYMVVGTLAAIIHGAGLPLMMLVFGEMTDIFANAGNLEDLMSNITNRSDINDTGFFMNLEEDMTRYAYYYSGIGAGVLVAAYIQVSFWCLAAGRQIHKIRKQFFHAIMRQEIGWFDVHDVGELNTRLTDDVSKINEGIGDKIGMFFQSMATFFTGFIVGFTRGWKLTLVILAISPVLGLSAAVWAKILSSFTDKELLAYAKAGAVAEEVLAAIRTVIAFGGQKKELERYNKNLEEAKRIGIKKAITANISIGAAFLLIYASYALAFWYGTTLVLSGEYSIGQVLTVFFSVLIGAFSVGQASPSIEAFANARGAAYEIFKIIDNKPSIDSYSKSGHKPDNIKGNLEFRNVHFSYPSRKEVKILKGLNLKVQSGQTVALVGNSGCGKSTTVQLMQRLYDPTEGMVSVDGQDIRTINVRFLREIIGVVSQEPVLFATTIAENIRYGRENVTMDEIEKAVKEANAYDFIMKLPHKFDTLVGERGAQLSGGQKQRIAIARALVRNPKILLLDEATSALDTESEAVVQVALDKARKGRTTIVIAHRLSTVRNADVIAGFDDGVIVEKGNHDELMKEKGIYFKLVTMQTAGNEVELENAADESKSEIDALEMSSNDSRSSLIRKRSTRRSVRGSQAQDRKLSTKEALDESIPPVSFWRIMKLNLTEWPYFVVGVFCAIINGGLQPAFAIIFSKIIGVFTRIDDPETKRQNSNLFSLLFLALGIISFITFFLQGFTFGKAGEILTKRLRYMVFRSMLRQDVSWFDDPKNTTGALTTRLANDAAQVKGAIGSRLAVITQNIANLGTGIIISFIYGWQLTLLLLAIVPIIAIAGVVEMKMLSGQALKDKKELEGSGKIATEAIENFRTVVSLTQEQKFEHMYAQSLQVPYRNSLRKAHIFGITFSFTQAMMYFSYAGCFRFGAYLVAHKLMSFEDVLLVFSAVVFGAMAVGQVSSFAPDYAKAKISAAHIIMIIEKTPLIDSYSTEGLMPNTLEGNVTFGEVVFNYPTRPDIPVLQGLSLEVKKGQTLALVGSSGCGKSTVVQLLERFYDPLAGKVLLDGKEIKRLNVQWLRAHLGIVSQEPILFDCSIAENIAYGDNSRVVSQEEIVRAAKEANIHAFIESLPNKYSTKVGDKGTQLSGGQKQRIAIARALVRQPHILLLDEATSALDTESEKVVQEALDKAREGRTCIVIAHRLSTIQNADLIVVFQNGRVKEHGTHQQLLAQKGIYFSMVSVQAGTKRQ
# Procedure: as §2, §3, §4
# [2] = Observed Kp,uu,brain and Kp,uu,CSF in monkeys; conditions: for Kp uu at 6 h: cynomolgus monkey; for Kp,uu,CSF Monkey: lumbar CSF; for Kp,uu,CSF Monkey / Kp,uu,brain Monkey: *1 data internally obtained
# Procedure: Monkey experiments were conducted internally or at the Drug Safety Research Laboratories in Shin Nippon Biomedical Laboratories via consignment to Axcelead Drug Discovery Partners. […] Detailed dosage regimen for each compound is summarized in Supplemental Table 3. […] Each cassette was assigned to a separate group of monkeys. The vehicle was saline or a mixture of dimethylacetamide and 1,3-butanediol (1:1, v/v). At the end of the 6-h infusion or 1 h after intravenous bolus administration, the monkeys were anesthetized, and whole blood, CSF, and whole brain were collected. Blood was collected using the anticoagulant, heparin sodium, and immediately centrifuged; the plasma was transferred to polypropylene tubes. Then, ketamine hydrochloride (50 mg/mL; 0.2 mL/kg; 10 mg/kg) was intramuscularly administered. CSF was collected after lumbar puncture using a spinal needle (22–25G) and a syringe pre-wetted with 10% CHAPS solution to prevent adsorption of compounds to all the equipment during pretreatment. CSF samples were immediately centrifuged, and the supernatant layers were transferred to polypropylene tubes. […] After collecting the cerebellum, hippocampus, and cerebral cortex from the whole brain, these were washed with cold saline, weighed, and homogenized immediately in 4 volumes of ice-cold 100 mmol/L sodium phosphate buffer. All samples were stored at –80°C until analysis by LC-MS/MS. Each sample (50 μL) was mixed with the working solution (the mixture of dimethyl sulfoxide and acetonitrile (2:8, v/v)), and protein was precipitated by the addition of 150 μL acetonitrile containing the internal standards (5 ng/mL alprenolol and diclofenac). After centrifugation at 5,250 rpm and 4°C for 5 min, the supernatant (150 μL) was transferred to a polypropylene 96-well plate (Corning; Corning, NY, USA) and completely evaporated under a gentle stream of N2. The residue was reconstituted in dilution solution (mobile phase A/B (7:3, v/v)), and the supernatant was analyzed by LC-MS/MS.
# Each sample (50 μL) was mixed with the working solution (the mixture of dimethyl sulfoxide and acetonitrile (2:8, v/v)), and the protein was precipitated by adding 150 μL acetonitrile containing internal standards (5 ng/mL alprenolol and diclofenac). After centrifugation at 5250 rpm and 4°C for 5 min, the supernatant (150 μL) was transferred to a polypropylene 96-well plate (Corning) and completely evaporated under a gentle stream of N2. The residue was reconstituted in mobile phase A/B (7:3, v/v)), and the supernatant was analyzed by LC-MS/MS. API5000 and QTRAP5500 (AB SCIEX, Framingham, MA, USA) equipped with Ultra-Fast Liquid Chromatography (Shimadzu, Kyoto, Japan) were used for determination of drug concentrations. Reversed-phase chromatography was performed using Shim-pack XR ODS (2.2 μm, 2.0×30 mm). Mobile phase A consisted of 10 mM ammonium formate with 0.2% formic acid, and mobile phase B contained acetonitrile with 0.2% formic acid. […] The mass spectrometer was operated in the positive ionization mode with multiple reaction monitoring (MRM). The MRM parameters (Q1 ion, Q3 ion, DP, EP, CE, and CXP) for monitoring the compounds are shown in Supplemental Table 4. Data acquisition and processing were performed using Analyst 1.6.2 (AB SCIEX, Framingham, MA, USA).
# as §1
# [3] = cited from earlier work; remark: listed apart in the source
Compound,"efflux ratio at 1 h, 1 μM (BCRP)","efflux ratio at 1 h, 1 μM (MDR1)","Kp,uu,CSF Human ([1]; *4 ref Friden et al. (21))","Kp,uu,CSF Rat ([3]; *4 ref Friden et al. (21))",further results
C#Cc1cccc(Nc2ncnc3cc(OCCOC)c(OCCOC)cc23)c1 [Erlotinib],5.8,19.8,,,"Kp uu (in vivo; in vivo, Kp,uu,CSF Rat): 0.409; Kp uu (in vivo; in vivo, Kp,uu,brain Rat): 0.061; Kp,uu,CSF Human ([1]; *2 ref Post et al. (24)): 0.428"
NCC(CC(=O)O)c1ccc(Cl)cc1 (stereo not drawn) [Baclofen],,,0.17,0.027,"Kp uu at 6 h ([2]; CSF (lumbar) / plasma, intravenous): 0.03; Kp uu at 6 h ([2]; brain / plasma, intravenous): 0.037; Kp,uu,brain Rat ([3]; *4 ref Friden et al. (21)): 0.02"
O=C(O)C[C@H](O)C[C@H](O)/C=C/c1c(C2CC2)nc2ccccc2c1-c1ccc(F)cc1 [Pitavastatin],,,,,"Kp,uu,CSF Monkey [2]: 0.129; Kp,uu,brain Monkey [2]: 0.242"
CC1(C)O[C@@H]2[C@@H](CO[C@@]3(COS(N)(=O)=O)OC(C)(C)O[C@@H]23)O1 [Topiramate],0.7,25,1,0.63,"Kp,uu,brain Rat ([3]; *4 ref Friden et al. (21)): 0.330"
COc1ccc(C(CN(C)C)C2(O)CCCCC2)cc1 (stereo not drawn) [Venlafaxine],0.7,7.6,,,"Kp,uu,brain Human ([1]; *3 ref Summerfield et al. (25)): 0.86; Kp,uu,brain Rat ([3]; *3 ref Summerfield et al. (25)): 1.074"
Cc1c(O)cccc1C(=O)N[C@@H](CSc1ccccc1)[C@H](O)CN1C[C@H]2CCCC[C@H]2C[C@H]1C(=O)NC(C)(C)C [Nelfinavir],,,0.045,0.067,"Kp,uu,CSF Monkey [2]: 0.640; Kp,uu,brain Monkey [2]: 0.008; Kp,uu,brain Rat ([3]; *4 ref Friden et al. (21)): 0.019"
CNC(=O)c1cc(Oc2ccc(NC(=O)Nc3ccc(Cl)c(C(F)(F)F)c3)cc2)ccn1 [Sorafenib],,,,,"Kp,uu,CSF Rat (in vivo; in vivo): 2.06; Kp,uu,brain Rat (in vivo; in vivo): 0.0228; Kp,uu,CSF Monkey [2]: 0.0798; Kp,uu,brain Monkey [2]: 0.0199"
CC(C)NCC(O)COc1cccc2[nH]ccc12 (stereo not drawn) [Pindolol],1.2,5.7,0.52,0.11,"Kp,uu,brain Rat ([3]; *4 ref Friden et al. (21)): 0.500"
Nc1ccc(S(=O)(=O)c2ccc(N)cc2)cc1 [Dapsone],0.8,1.3,,,"Kp uu at 6 h ([2]; in vivo, Kp,uu,CSF Monkey): 0.661; Kp uu at 6 h ([2]; in vivo, Kp,uu,brain Monkey): 1.02; Kp,uu,CSF Human ([1]; *11 ref Togashi et al. (29)): 1.56"
COc1cc2nc(N3CCN(C(=O)c4ccco4)CC3)nc(N)c2cc1OC [Prazosin],18,52,,,"Kp uu at 6 h ([2]; in vivo, Kp,uu,CSF Monkey): 0.289; Kp uu at 6 h ([2]; in vivo, Kp,uu,brain Monkey): 0.253"
CN(Cc1cnc2nc(N)nc(N)c2n1)c1ccc(C(=O)N[C@@H](CCC(=O)O)C(=O)O)cc1 [Methotrexate],1.2,1.4,0.062,0.007,
Nc1c2c(nc3ccccc13)CCCC2 [Tacrine],1.1,1,,,"Kp,uu,CSF Human ([1]; in vivo): 0.74; Kp,uu,CSF Rat ([3]; in vivo): 0.67"
COc1cc([C@@H]2c3cc4c(cc3[C@@H](O[C@@H]3O[C@@H]5CO[C@@H](C)O[C@H]5[C@H](O)[C@H]3O)[C@H]3COC(=O)[C@H]23)OCO4)cc(OC)c1O [Etoposide],3.7,6.1,,,
O=c1c(-c2ccc(O)cc2)coc2cc(O)cc(O)c12 [Genistein],,,,,"Kp,uu,CSF Rat (in vivo; *1 data internally obtained): 1.29; Kp,uu,brain Rat (in vivo; *1 data internally obtained): 0.0238; Kp,uu,CSF Monkey [2]: 0.0369; Kp,uu,brain Monkey [2]: 0.0128; Kp,uu,CSF Rat ([3]; *7 ref Kodaira et al. (20)): 0.589; Kp,uu,brain Rat ([3]; *7 ref Kodaira et al. (20)): 0.181"
COc1ccc2c(c1)c(CC(=O)O)c(C)n2C(=O)c1ccc(Cl)cc1 [Indomethacin],12,3.2,0.27,0.17,
CN[C@H]1CC[C@@H](c2ccc(Cl)c(Cl)c2)c2ccccc21 [Sertraline],1.2,0.5,,,
